Results on four compounds are retold here after ChEMBL document CHEMBL4196065, “Design and synthesis of new hybrids from 2-cyano-3,12-dioxooleana- 9-dien-28-oic acid and O2-(2,4-dinitrophenyl) diazeniumdiolate for intervention of drug-resistant lung cancer” (Eur J Med Chem, 2018).

Usually IC50 stands for the point on the concentration scale where inhibition reaches its midpoint.

Activity calls are given as the source filed them. The rule behind the calls is not given here.

Data set [1] has as its system A549/TR. The experiment in a line: Antiproliferative activity against human A549/TR cells after 72 hrs by MTT assay. Format: functional, cell-based. On the technique in general: Tetrazolium dyes change colour on reduction, which living cells bring about.
Data set [2] can be described thus: Resistant factor, ratio of IC50 for human A549/TR cells to IC50 for human A549 cells. The data set is classed as functional.
The test system of another data set is A549. Nature of the data set: cells. The note with it: Homo sapiens, A549, 72 h.
For data set [3], the system named is A549/TR. The experiment in a line: Induction of nitric oxide production in human A549/TR cells at 50 uM after 6 hrs by Griess assay. The data set is classed as functional, cell-based. Background: Nitrite, measured by Griess reagent, commonly stands in for NO production.
Another data set has as its system MRC5. Nature of the data set: Induction of nitric oxide production in human MRC5 cells at 50 uM after 6 hrs by Griess assay. Format: cell-based. As to conditions: mrc5, 6 h.
Data set [4] deals with A549/TR. The experiment in a line: Induction of ROS generation in human A549/TR cells at 2.4 to 9.6 uM after 24 hrs by DCFH-DA dye-based flow cytometric analysis. The data set is classed as functional, cell-based.
For data set [5], the system named is A549/TR. Nature of the data set: Downregulation of Lon expression in human A549/TR cells at 4.8 uM after 24 hrs by Western blot analysis. The data set is classed as functional, cell-based. Background: Immunoblotting shows a protein as a band on a membrane.
For data set [6], the system named is A549/TR. The experiment in a line: Induction of apoptosis in human A549/TR cells assessed as viable cells at 1.2 uM after 24 hrs by Annexin-V-FITC/propidium iodide staining-based flow cytometric analysis (reference value: 95.1%). The data set is classed as functional. As to conditions: read-out: Activity.
Data set [7] relates to A549/TR. The experiment in a line: Induction of apoptosis in human A549/TR cells assessed as early apoptotic cells at 1.2 uM after 24 hrs by Annexin-V-FITC/propidium iodide staining-based flow cytometric analysis (reference value: 3.42%). The data set is classed as functional.
For data set [8], the system named is A549/TR. The experiment in a line: Induction of apoptosis in human A549/TR cells assessed as late apoptotic cells at 1.2 uM after 24 hrs by Annexin-V-FITC/propidium iodide staining-based flow cytometric analysis (reference value: 1.24%). Format: functional.
For data set [9], the system named is A549/TR. Nature of the data set: Induction of apoptosis in human A549/TR cells assessed as necrotic cells at 1.2 uM after 24 hrs by Annexin-V-FITC/propidium iodide staining-based flow cytometric analysis (reference value: 0.22%). The data set is classed as functional.
In data set [10] the test system is A549/TR. Nature of the data set: Induction of apoptosis in human A549/TR cells assessed as viable cells at 2.4 uM after 24 hrs by Annexin-V-FITC/propidium iodide staining-based flow cytometric analysis (reference value: 95.1%). Format: functional. As to conditions: read-out: Activity.
For data set [11], the system named is A549/TR. The experiment in a line: Induction of apoptosis in human A549/TR cells assessed as early apoptotic cells at 2.4 uM after 24 hrs by Annexin-V-FITC/propidium iodide staining-based flow cytometric analysis (reference value: 3.42%). Format: functional.
Data set [12] deals with A549/TR. Nature of the data set: Induction of apoptosis in human A549/TR cells assessed as late apoptotic cells at 2.4 uM after 24 hrs by Annexin-V-FITC/propidium iodide staining-based flow cytometric analysis (reference value: 1.24%). The data set is classed as functional.
Data set [13] relates to A549/TR. The experiment in a line: Induction of apoptosis in human A549/TR cells assessed as necrotic cells at 2.4 uM after 24 hrs by Annexin-V-FITC/propidium iodide staining-based flow cytometric analysis (reference value: 0.22%). Format: functional.
Data set [14] relates to A549/TR. Nature of the data set: Induction of apoptosis in human A549/TR cells assessed as viable cells at 4.8 uM after 24 hrs by Annexin-V-FITC/propidium iodide staining-based flow cytometric analysis (reference value: 95.1%). The note with it: read-out: Activity. Format: functional.
The test system of data set [15] is A549/TR. The experiment in a line: Induction of apoptosis in human A549/TR cells assessed as early apoptotic cells at 4.8 uM after 24 hrs by Annexin-V-FITC/propidium iodide staining-based flow cytometric analysis (reference value: 3.42%). Format: functional.
The subject of data set [16] is A549/TR. The experiment in a line: Induction of apoptosis in human A549/TR cells assessed as late apoptotic cells at 4.8 uM after 24 hrs by Annexin-V-FITC/propidium iodide staining-based flow cytometric analysis (reference value: 1.24%). The data set is classed as functional.
For data set [17], the system named is A549/TR. Nature of the data set: Induction of apoptosis in human A549/TR cells assessed as necrotic cells at 4.8 uM after 24 hrs by Annexin-V-FITC/propidium iodide staining-based flow cytometric analysis (reference value: 0.22%). The data set is classed as functional.
Data set [18] has as its system A549/TR. Nature of the data set: Cell cycle arrest in human A549/TR cells assessed as accumulation at G0/G1 phase at 1.2 uM after 24 hrs by propidium iodide/RNase-staining based flow cytometric analysis (reference value: 62.5%). Format: functional.
Data set [19] relates to A549/TR. The experiment in a line: Cell cycle arrest in human A549/TR cells assessed as accumulation at G2/M phase at 1.2 uM after 24 hrs by propidium iodide/RNase-staining based flow cytometric analysis (reference value: 24.7%). The data set is classed as functional.
For data set [20], the system named is A549/TR. The experiment in a line: Cell cycle arrest in human A549/TR cells assessed as accumulation at G0/G1 phase at 2.4 uM after 24 hrs by propidium iodide/RNase-staining based flow cytometric analysis (reference value: 62.5%). Format: functional.
Data set [21] deals with A549/TR. The experiment in a line: Cell cycle arrest in human A549/TR cells assessed as accumulation at G2/M phase at 2.4 uM after 24 hrs by propidium iodide/RNase-staining based flow cytometric analysis (reference value: 24.7%). The data set is classed as functional.
In data set [22] the test system is A549/TR. Nature of the data set: Cell cycle arrest in human A549/TR cells assessed as accumulation at G0/G1 phase at 4.8 uM after 24 hrs by propidium iodide/RNase-staining based flow cytometric analysis (reference value: 62.5%). The data set is classed as functional.
The test system of data set [23] is A549/TR. The experiment in a line: Cell cycle arrest in human A549/TR cells assessed as accumulation at G2/M phase at 4.8 uM after 24 hrs by propidium iodide/RNase-staining based flow cytometric analysis (reference value: 24.7%). The data set is classed as functional.
Data set [24] deals with A549/TR. Nature of the data set: Antiproliferative activity against human A549/TR cells at 1 uM after 72 hrs by MTT assay. The data set is classed as functional.

`CC(=O)O[C@H]1C(=O)[C@@]2(C)[C@H]([C@H](OC(=O)c3ccccc3)[C@]3(O)C[C@H](OC(=O)[C@H](O)[C@@H](NC(=O)c4ccccc4)c4ccccc4)C(C)=C1C3(C)C)[C@]1(OC(C)=O)CO[C@@H]1C[C@@H]2O` [PACLITAXEL]: the IC50 turned out to be 3110 nM with A549/TR [1] and 7 nM in the data set with A549. The “Ratio IC50” value in [2] was 445.

Regarding `CCOC(=O)N1CCN(/[N+]([O-])=N/Oc2ccc([N+](=O)[O-])cc2[N+](=O)[O-])CC1`, the IC50 turned out to be 1990 nM in the data set on A549/TR [1] and 2310 nM with A549. Besides, the “Ratio IC50” value in data set [2] was 0.9. Moreover, the outcome in the data set with A549/TR [3], with A549/TR [4] and in the data set with A549/TR [5] was Active. The Activity entry is given as “Toxic” in the data set with MRC5; 6.75% in the data set on A549/TR [7]; 2.38% in the data set with A549/TR [8]; 0.34% in the data set with A549/TR [9]; 5.63% in the data set on A549/TR [11]; 1.94% in the data set on A549/TR [12]. For the same compound, the Activity was determined as 0.37% with A549/TR [13]; 7.76% in the data set with A549/TR [15]; 4.19% in the data set with A549/TR [16]; 1.04% in the data set on A549/TR [17]; 65.3% in the data set with A549/TR [18]; 24.5% in the data set on A549/TR [19]. For the same compound, the Activity with A549/TR [20] stood at 54.4%; in the data set on A549/TR [21], 32%; in the data set with A549/TR [22] it was 47.7%; with A549/TR [23], 38.7%. Moreover, in the data set with A549/TR [6], the viability at 1.2 µM was found to be 90.5%. Moreover, the viability at 2.4 µM with A549/TR [10] turned out to be 92.1%. Further, the viability at 4.8 µM with A549/TR [14] was 87%.

On to `C[C@H](N)C(=O)OCCN(C)/[N+]([O-])=N/Oc1cc(N2CCN(C(=O)[C@]34CCC(C)(C)C[C@H]3[C@H]3C(=O)C=C5[C@@]6(C)C=C(C#N)C(=O)C(C)(C)[C@@H]6CC[C@@]5(C)[C@]3(C)CC4)CC2)c([N+](=O)[O-])cc1[N+](=O)[O-]`, for which, in the data set with A549/TR [24], the Activity was greater than 50%. For the same compound, the IC50 in the data set on A549/TR [1] stood at 697 nM; in the data set with A549, 1070 nM. Besides, the “Ratio IC50” value in [2] amounted to 0.7.

In turn, `CC1(C)CC[C@]2(C(=O)N3CCN(c4cc(O/N=[N+](\[O-])N5CCOCC5)c([N+](=O)[O-])cc4[N+](=O)[O-])CC3)CC[C@]3(C)[C@H](C(=O)C=C4[C@@]5(C)C=C(C#N)C(=O)C(C)(C)[C@@H]5CC[C@]43C)[C@@H]2C1` returned an Activity in the data set with A549/TR [24] greater than 50%. For the same compound, the IC50 with A549/TR [1] came out at 941 nM; with A549, 1080 nM. For the same compound, in data set [2], the “Ratio IC50” value was determined as 0.9.
